According to patent publication US11419869B2, “Dosage forms and regimens for amino acid compounds” (Pliant Therapeutics, Inc., priority 2019, dated 2022):

What follows are molecules tested against recombinant human integrin αvβ6 (Homo sapiens (Human), UniProt P06756+P18564) (assay: Solid Phase Integrin αvβ6 Binding Assay (Examples B1, B2)). Settings: TGFβ1 LAP ligand, values given in four ranges, read-out: αvβ6 Inhibition IC50 (nM)-range.
recombinant human integrin αvβ6, sequence (P06756 31-992): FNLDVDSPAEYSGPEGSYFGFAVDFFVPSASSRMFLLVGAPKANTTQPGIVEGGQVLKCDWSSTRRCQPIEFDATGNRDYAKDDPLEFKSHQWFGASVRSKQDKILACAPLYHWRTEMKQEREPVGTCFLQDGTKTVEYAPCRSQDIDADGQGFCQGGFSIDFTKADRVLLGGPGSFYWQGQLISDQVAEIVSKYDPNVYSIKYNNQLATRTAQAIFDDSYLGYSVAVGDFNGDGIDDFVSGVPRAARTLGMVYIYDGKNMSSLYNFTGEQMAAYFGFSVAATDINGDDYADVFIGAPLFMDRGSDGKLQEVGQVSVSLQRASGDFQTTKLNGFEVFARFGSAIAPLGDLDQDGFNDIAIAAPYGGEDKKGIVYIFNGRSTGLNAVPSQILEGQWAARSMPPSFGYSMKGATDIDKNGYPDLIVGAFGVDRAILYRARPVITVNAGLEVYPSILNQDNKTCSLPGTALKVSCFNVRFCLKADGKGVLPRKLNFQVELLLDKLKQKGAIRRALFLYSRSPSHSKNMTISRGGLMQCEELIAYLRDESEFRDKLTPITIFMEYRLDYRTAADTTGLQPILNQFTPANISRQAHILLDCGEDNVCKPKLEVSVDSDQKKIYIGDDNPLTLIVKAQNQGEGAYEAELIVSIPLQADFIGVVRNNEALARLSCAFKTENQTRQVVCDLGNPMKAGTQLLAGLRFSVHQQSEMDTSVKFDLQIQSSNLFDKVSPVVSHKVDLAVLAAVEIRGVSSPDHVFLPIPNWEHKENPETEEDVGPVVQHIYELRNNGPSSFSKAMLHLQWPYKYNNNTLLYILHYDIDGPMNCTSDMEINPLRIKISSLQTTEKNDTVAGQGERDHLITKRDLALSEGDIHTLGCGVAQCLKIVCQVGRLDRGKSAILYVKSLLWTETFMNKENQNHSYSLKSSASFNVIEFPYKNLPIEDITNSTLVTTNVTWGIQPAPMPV
recombinant human integrin αvβ6, sequence (P18564 22-707): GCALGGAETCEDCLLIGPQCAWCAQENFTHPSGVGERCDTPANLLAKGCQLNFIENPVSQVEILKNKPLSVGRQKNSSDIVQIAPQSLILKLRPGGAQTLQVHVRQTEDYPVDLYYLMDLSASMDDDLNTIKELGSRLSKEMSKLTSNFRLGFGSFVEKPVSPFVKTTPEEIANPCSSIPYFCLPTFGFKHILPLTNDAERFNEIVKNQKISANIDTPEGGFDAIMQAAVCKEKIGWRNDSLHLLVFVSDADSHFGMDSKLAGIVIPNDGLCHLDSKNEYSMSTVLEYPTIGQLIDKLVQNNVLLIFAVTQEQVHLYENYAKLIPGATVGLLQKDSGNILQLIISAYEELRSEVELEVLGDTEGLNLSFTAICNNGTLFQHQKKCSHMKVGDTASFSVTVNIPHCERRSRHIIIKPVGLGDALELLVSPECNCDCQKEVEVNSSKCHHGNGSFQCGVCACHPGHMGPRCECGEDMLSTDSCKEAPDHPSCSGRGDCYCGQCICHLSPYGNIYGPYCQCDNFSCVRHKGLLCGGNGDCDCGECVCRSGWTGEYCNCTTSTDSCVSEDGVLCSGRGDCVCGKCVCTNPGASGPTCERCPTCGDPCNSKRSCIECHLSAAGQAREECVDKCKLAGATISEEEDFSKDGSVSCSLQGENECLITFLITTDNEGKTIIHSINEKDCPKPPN
Summary of the method: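 Plates coated with recombinant human αvβ6 (2 μg/mL) compete compound against recombinant TGFβ1 LAP (0.67 μg/mL) in TBS binding buffer with 0.5 mM MnCl2, 2 h at 25 °C. Bound LAP detected with biotin-anti-hLAP and peroxidase-streptavidin; IC50 by four-parameter logistic regression.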
With `CO[C@H](C)CN(CCCCc1ccc2c(n1)NCCC2)CC[C@H](Nc1ncc(Br)cn1)C(=O)O` [Compound 70, (S)-2-((5-bromopyrimidin-2-yl)amino)-4-(((R)-2-methoxypropyl) (4-(5,6,7,8-tetrahydro-1,8-naphthyridin-2-yl)butyl)amino) butanoic acid] the IC50 was less than 50 nM. Work on `CO[C@H](C)CN(CCCCc1ccc2c(n1)NCCC2)CC[C@H](Nc1ncnc2[nH]ncc12)C(=O)O` [Compound 71, (S)-2-((1H-pyrazolo[3,4-d]pyrimidin-4-yl)amino)-4-(((R)-2-methoxypropyl) (4-(5,6,7,8-tetrahydro-1,8-naphthyridin-2-yl)butyl)amino) butanoic acid] yielded an IC50 of less than 50 nM. Molecule `CO[C@H](C)CN(CCCCc1ccc2c(n1)NCCC2)CC[C@H](Nc1ccnc(C(F)(F)F)n1)C(=O)O` [Compound 72, (S)-4-(((R)-2-methoxypropyl) (4-(5,6,7,8-tetrahydro-1,8-naphthyridin-2-yl)butyl)amino)-2-((2-(trifluoromethyl)pyrimidin-4-yl)amino) butanoic acid] has an IC50 of less than 50 nM. With `CO[C@H](C)CN(CCCCc1ccc2c(n1)NCCC2)CC[C@H](Nc1ccnc(-c2ccccc2)n1)C(=O)O` [Compound 73, (S)-4-(((R)-2-methoxypropyl) (4-(5,6,7,8-tetrahydro-1,8-naphthyridin-2-yl)butyl)amino)-2-((2-phenylpyrimidin-4-yl)amino) butanoic acid] the IC50 was less than 50 nM. In the case of `CO[C@H](C)CN(CCCCc1ccc2c(n1)NCCC2)CC[C@H](Nc1ncnc2c1cnn2C)C(=O)O` [Compound 74, (S)-4-(((R)-2-methoxypropyl) (4-(5,6,7,8-tetrahydro-1,8-naphthyridin-2-yl)butyl)amino)-2-((1-methyl-1H-pyrazolo[3,4-d]pyrimidin-4-yl)amino) butanoic acid], the IC50 was less than 50 nM. For `O=C(O)[C@H](CCN(CCO)CCCCc1ccc2c(n1)NCCC2)Nc1ncnc2ccccc12` [Compound 75, (S)-4-((2-hydroxyethyl) (4-(5,6,7,8-tetrahydro-1,8-naphthyridin-2-yl)butyl)amino)-2-(quinazolin-4-ylamino) butanoic acid], the IC50 was less than 50 nM. `CO[C@H](C)CN(CCCCc1ccc2c(n1)NCCC2)CC[C@H](Nc1nccnc1C#N)C(=O)O` [Compound 76, (S)-2-((3-cyanopyrazin-2-yl)amino)-4-(((R)-2-methoxypropyl) (4-(5,6,7,8-tetrahydro-1,8-naphthyridin-2-yl)butyl)amino) butanoic acid] showed an IC50 of less than 50 nM. `CO[C@H](C)CN(CCCCc1ccc2c(n1)NCCC2)CC[C@H](Nc1cc(-n2cccn2)ncn1)C(=O)O` [Compound 77, (S)-2-((6-(1H-pyrazol-1-yl)pyrimidin-4-yl)amino)-4-(((R)-2-methoxypropyl) (4-(5,6,7,8-tetrahydro-1,8-naphthyridin-2-yl)butyl)amino) butanoic acid] gave an IC50 of less than 50 nM. Work on `CO[C@H](C)CN(CCCCc1ccc2c(n1)NCCC2)CC[C@H](Nc1ncc(F)cn1)C(=O)O` [Compound 78, (S)-2-((5-fluoropyrimidin-2-yl)amino)-4-(((R)-2-methoxypropyl) (4-(5,6,7,8-tetrahydro-1,8-naphthyridin-2-yl)butyl)amino) butanoic acid] yielded an IC50 of less than 50 nM. With `CO[C@H](C)CN(CCCCc1ccc2c(n1)NCCC2)CC[C@H](Nc1ncnc2cn[nH]c12)C(=O)O` [Compound 79, (S)-2-((1H-pyrazolo[4,3-d]pyrimidin-7-yl)amino)-4-(((R)-2-methoxypropyl) (4-(5,6,7,8-tetrahydro-1,8-naphthyridin-2-yl)butyl)amino) butanoic acid] the IC50 was less than 50 nM. In the case of `CO[C@H](C)CN(CCCCc1ccc2c(n1)NCCC2)CC[C@H](Nc1cc(-c2ccccc2)ncn1)C(=O)O` [Compound 80, (S)-4-(((R)-2-methoxypropyl) (4-(5,6,7,8-tetrahydro-1,8-naphthyridin-2-yl)butyl)amino)-2-((6-phenylpyrimidin-4-yl)amino) butanoic acid], the IC50 was less than 50 nM. For `CO[C@H](C)CN(CCCCc1ccc2c(n1)NCCC2)CC[C@H](Nc1ncncc1-c1ccccc1)C(=O)O` [Compound 81, (S)-4-(((R)-2-methoxypropyl) (4-(5,6,7,8-tetrahydro-1,8-naphthyridin-2-yl)butyl)amino)-2-((5-phenylpyrimidin-4-yl)amino) butanoic acid], the IC50 was less than 50 nM. `Cn1ncc2c(N[C@@H](CCN(CCCCc3ccc4c(n3)NCCC4)CCOc3ccccc3)C(=O)O)ncnc21` [Compound 82, (S)-2-((1-methyl-1H-pyrazolo[3,4-d]pyrimidin-4-yl)amino)-4-((2-phenoxyethyl) (4-(5,6,7,8-tetrahydro-1,8-naphthyridin-2-yl)butyl)amino) butanoic acid] showed an IC50 of less than 50 nM. Work on `O=C(O)[C@H](CCN(CCCCc1ccc2c(n1)NCCC2)CCOc1ccccc1)Nc1ncc(Br)cn1` [Compound 83, (S)-2-((5-bromopyrimidin-2-yl)amino)-4-((2-phenoxyethyl) (4-(5,6,7,8-tetrahydro-1,8-naphthyridin-2-yl)butyl)amino) butanoic acid] yielded an IC50 of less than 50 nM. Work on `Cn1ncc2c(N[C@@H](CCN(CCCCc3ccc4c(n3)NCCC4)CC(F)F)C(=O)O)ncnc21` [Compound 88, (S)-4-((2,2-difluoroethyl) (4-(5,6,7,8-tetrahydro-1,8-naphthyridin-2-yl)butyl)amino)-2-((1-methyl-1H-pyrazolo[3,4-d]pyrimidin-4-yl)amino) butanoic acid] yielded an IC50 greater than 1000 nM. Work on `O=C(O)[C@H](CCN(CCCCc1ccc2c(n1)NCCC2)CCOc1ccccc1)Nc1ncc(C(F)(F)F)cn1` [Compound 89, (S)-4-((2-phenoxyethyl) (4-(5,6,7,8-tetrahydro-1,8-naphthyridin-2-yl)butyl)amino)-2-((5-(trifluoromethyl)pyrimidin-2-yl)amino) butanoic acid] yielded an IC50 of less than 50 nM. `O=C(O)[C@H](CCN(CCCCc1ccc2c(n1)NCCC2)CCOc1ccccc1)Nc1ncnc2[nH]ncc12` [Compound 90, (S)-2-((1H-pyrazolo[3,4-d]pyrimidin-4-yl)amino)-4-((2-phenoxyethyl) (4-(5,6,7,8-tetrahydro-1,8-naphthyridin-2-yl)butyl)amino) butanoic acid] gave an IC50 of less than 50 nM. `O=C(O)[C@H](CCN(CCCCc1ccc2c(n1)NCCC2)CCOc1ccccc1)Nc1cc(-n2cccn2)ncn1` [Compound 91, (S)-2-((6-(1H-pyrazol-1-yl)pyrimidin-4-yl)amino)-4-((2-phenoxyethyl) (4-(5,6,7,8-tetrahydro-1,8-naphthyridin-2-yl)butyl)amino) butanoic acid] showed an IC50 of less than 50 nM. Molecule `O=C(O)[C@H](CCN(CCCCc1ccc2c(n1)NCCC2)CCOc1ccccc1)Nc1ccnc(C(F)(F)F)n1` [Compound 92, (S)-4-((2-phenoxyethyl) (4-(5,6,7,8-tetrahydro-1,8-naphthyridin-2-yl)butyl)amino)-2-((2-(trifluoromethyl)pyrimidin-4-yl)amino) butanoic acid] has an IC50 of less than 50 nM. With `O=C(O)[C@H](CCN(CCCCc1ccc2c(n1)NCCC2)CCOc1ccccc1)Nc1cc(-c2ccccc2)ncn1` [Compound 93, (S)-4-((2-phenoxyethyl) (4-(5,6,7,8-tetrahydro-1,8-naphthyridin-2-yl)butyl)amino)-2-((6-phenylpyrimidin-4-yl)amino) butanoic acid] the IC50 was less than 50 nM. `O=C(O)[C@H](CCN(CCCCc1ccc2c(n1)NCCC2)CCOc1ccccc1)Nc1nc(-c2cccnc2)nc2ccccc12` [Compound 94, (S)-4-((2-phenoxyethyl) (4-(5,6,7,8-tetrahydro-1,8-naphthyridin-2-yl)butyl)amino)-2-((2-(pyridin-3-yl)quinazolin-4-yl)amino) butanoic acid] showed an IC50 of less than 50 nM. `O=C(O)[C@H](CCN(CCCCc1ccc2c(n1)NCCC2)CC(F)F)Nc1ncc(C(F)(F)F)cn1` [Compound 95, (S)-4-((2,2-difluoroethyl) (4-(5,6,7,8-tetrahydro-1,8-naphthyridin-2-yl)butyl)amino)-2-((5-(trifluoromethyl)pyrimidin-2-yl)amino) butanoic acid] showed an IC50 greater than 1000 nM. `O=C(O)[C@H](CCN(CCCCc1ccc2c(n1)NCCC2)CC(F)F)Nc1ncc(Br)cn1` [Compound 96, (S)-2-((5-bromopyrimidin-2-yl)amino)-4-((2,2-difluoroethyl) (4-(5,6,7,8-tetrahydro-1,8-naphthyridin-2-yl)butyl)amino) butanoic acid] gave an IC50 greater than 1000 nM. With `O=C(O)[C@H](CCN(CCCCc1ccc2c(n1)NCCC2)CC(F)F)Nc1ccnc(C(F)(F)F)n1` [Compound 97, (S)-4-((2,2-difluoroethyl) (4-(5,6,7,8-tetrahydro-1,8-naphthyridin-2-yl)butyl)amino)-2-((2-(trifluoromethyl)pyrimidin-4-yl)amino) butanoic acid] the IC50 was greater than 1000 nM. With `O=C(O)[C@H](CCN(CCCCc1ccc2c(n1)NCCC2)CC(F)F)Nc1cc(-n2cccn2)ncn1` [Compound 98, (S)-2-((6-(1H-pyrazol-1-yl)pyrimidin-4-yl)amino)-4-((2,2-difluoroethyl) (4-(5,6,7,8-tetrahydro-1,8-naphthyridin-2-yl)butyl)amino) butanoic acid] the IC50 was greater than 1000 nM. `CO[C@H](C)CN(CCCCc1ccc2c(n1)NCCC2)CC[C@H](Nc1nc(-c2cccnc2)nc2ccccc12)C(=O)O` [Compound 100, (S)-4-(((R)-2-methoxypropyl) (4-(5,6,7,8-tetrahydro-1,8-naphthyridin-2-yl)butyl)amino)-2-((2-(pyridin-3-yl)quinazolin-4-yl)amino) butanoic acid] showed an IC50 of less than 50 nM. For `CS(=O)(=O)CCN(CCCCc1ccc2c(n1)NCCC2)CC[C@H](Nc1ncc(C(F)(F)F)cn1)C(=O)O` [Compound 102, (S)-4-((2-(methylsulfonyl)ethyl) (4-(5,6,7,8-tetrahydro-1,8-naphthyridin-2-yl)butyl)amino)-2-((5-(trifluoromethyl)pyrimidin-2-yl)amino) butanoic acid], the IC50 was greater than 1000 nM. `CS(=O)(=O)CCN(CCCCc1ccc2c(n1)NCCC2)CC[C@H](Nc1ncc(Br)cn1)C(=O)O` [Compound 103, (S)-2-((5-bromopyrimidin-2-yl)amino)-4-((2-(methylsulfonyl)ethyl) (4-(5,6,7,8-tetrahydro-1,8-naphthyridin-2-yl)butyl)amino) butanoic acid] showed an IC50 greater than 1000 nM.
